Among the data in PubChem BioAssay (NCI) are TGI values, retold here.

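96-well plates; 48 h exposure; 5 concentrations. Endpoints by linear interpolation between flanking doses. Not reached: highest tested concentration assigned. TGI marks complete inhibition of growth.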 Some results are limits rather than exact numbers.

Holding throughout (experiment): inhibition of tumour cell growth, NCI panel, 48 h
Test [1] concerns OVCAR-8 ovarian.
Test [2] relates to IGROV1 ovarian.
Test [3] deals with U251 CNS.
The test system of test [4] is 786-0 renal.
The test system of test [5] is CAKI-1 renal.
Test [6] has as its system SF-268 CNS.
The test system of test [7] is A549 NSCLC.
Test [8] has as its system KM12 colon.
Test [9] deals with RXF 393 renal.
Test [10] concerns MOLT-4 leukemia.
In test [11] the test system is COLO 205 colon.

As to `Cc1cccc(N=NC(=O)NNc2cccc(C)c2C)c1C`, the TGI in test [1] is above 100 µM; in [2], above 100 µM; in test [3] it was above 100 µM; in test [4], 86 µM; in [5], above 100 µM; in test [6], above 100 µM. Also, the TGI in [7] is above 100 µM.

Consider `NC(N)=NCCC[C@H](N)C(=O)NCC(=O)N[C@@H](CC(=O)O)c1ncc(NC(=O)C(F)(F)F)o1`, for which the TGI in test [1], in test [2], in test [8], in test [9], in [10] and in test [3] was above 25 µM each time. Also, the TGI in test [4], in test [6], in test [7] and in [11] was above 25 µM in each case.

Take `COc1ccc(C2OC[C@H]3O[C@@H](OCc4ccccc4)[C@H](O)[C@@H](O)[C@@H]3O2)cc1` (stereo partly specified): the TGI in test [1], in test [2], in test [9], in test [10], in test [3] and in test [5] was above 100 µM each time. Also, the TGI in [6], in [7] and in test [11] was above 100 µM throughout.

As to `O=C(NI1OC(=O)c2ccccc21)c1ccc(Cl)cc1`, the TGI in test [1], in test [2], in test [8], in test [9], in test [3] and in test [4] was above 100 µM throughout. Besides, the TGI in test [5], in test [6], in [7] and in [11] was above 100 µM throughout.

With `Cc1ccc(SCC(CF)OC(C)n2cnc3c(=O)[nH]c(N)nc32)cc1` (stereo unspecified), the TGI in [1], in test [2], in test [8], in test [10], in test [3] and in test [4] was above 100 µM throughout. Further, the TGI in [5], in [6], in test [7] and in test [11] was above 100 µM throughout.

Take `CSc1ncnc2c1ncn2C1CC(Oc2ccc(C)cc2)C(COc2ccc(C)cc2)O1` (stereo unspecified): the TGI in test [1], in test [2], in [8], in test [10], in test [3] and in test [4] was above 100 µM in each case. Moreover, the TGI in test [5], in [6], in test [7] and in test [11] was above 100 µM throughout.

`O=c1[nH]nc(-c2ccccc2)c2[nH]c3c4ccccc4ccc3c12`: the TGI in test [2] was above 100 µM; in [8], above 100 µM; in [9], above 100 µM; in test [10], above 100 µM; in test [3] it was above 100 µM; in [4] it was 48.1 µM. The TGI in [6], in [7] and in test [11] was above 100 µM in each case.

With `O=C1CSC(c2cccc(Oc3ccccc3)c2)N1c1ccc(Cl)cc1` (stereo unspecified), the TGI in test [1] was above 100 µM; in test [8] it was above 100 µM; in test [9], 73.3 µM; in test [10], 56.1 µM; in test [3], above 100 µM; in test [4] it was above 100 µM. The TGI in test [5] is above 100 µM; in test [6], above 100 µM; in test [7], above 100 µM; in test [11], 35.5 µM.

For the compound `CON(C)C(=O)CNC(=O)OCC1c2ccccc2-c2ccccc21`, the TGI in test [1], in test [2], in [8], in test [9], in test [10] and in test [3] was above 100 µM throughout. Also, the TGI in [4], in [6], in [7] and in test [11] was above 100 µM in each case.

In the case of `CC12C(=O)CC(CC1=O)C2(C)C`, the TGI in test [1], in test [2], in test [8], in [10], in test [4] and in [5] was above 100 µM in each case. In addition, the TGI in test [6], in test [7] and in [11] was above 100 µM throughout.

As to `N#CC(NC12CC3CC(CC(C3)C1)C2)c1ccccc1C(F)(F)F` (stereo unspecified), the TGI in test [1], in test [8], in test [9], in test [10], in test [5] and in test [6] was above 100 µM in each case. The TGI in test [7] and in [11] was above 100 µM in each case.

With `CC1NC(=O)CC(c2ccccc2)N(N=O)C1c1ccccc1` (stereo unspecified), the TGI in test [1] is above 82.7 µM; in [2] it was above 100 µM; in test [8], above 100 µM; in test [9], 53.5 µM; in [10] it was above 100 µM; in test [3], above 100 µM. The TGI is above 100 µM in test [5], above 100 µM in [6], above 100 µM in test [7] and above 72.9 µM in test [11].

As to `O=C1CCC(c2ccc(Cl)cc2)=NN1c1nsc2ccccc12`, the TGI in [1] is above 100 µM; in test [2] it was above 100 µM; in test [8], above 100 µM; in test [9], 59.6 µM; in test [10], 53.2 µM; in test [3], above 100 µM. The TGI in test [6], in test [7] and in test [11] was above 100 µM each time.

For `CC(=O)OC(/C=C/c1ccccc1)=C(OC(C)C)/C1=C(\c2ccccc2)SCCCSC1=O`, the TGI in [1], in test [8], in test [9], in test [10], in [3] and in [4] was above 100 µM each time. Further, the TGI in test [5], in [6], in [7] and in [11] was above 100 µM throughout.
